Measured values reported in ChEMBL document CHEMBL1134204, “Carbonic anhydrase inhibitors: synthesis of sulfonamides incorporating dtpa tails and of their zinc complexes with powerful topical antiglaucoma properties” (Bioorg Med Chem Lett, 2001).

How the values were obtained:
Oryctolagus cuniculus [1] = assay: In vivo activity in normotensive rabbits (23.5+/-2.6 mmHg) for the intraocular pressure (IOP) lowering 30 min after topical administration with one drop of Carbonic anhydrase inhibitor at a pH 7.4; assay type: functional, Eye
Oryctolagus cuniculus [2] = assay: In vivo activity in normotensive rabbits (23.5+/-2.6 mmHg) for the intraocular pressure (IOP) lowering 60 min after topical administration with one drop of Carbonic anhydrase inhibitor at a pH 7.4; assay type: functional, Eye
Oryctolagus cuniculus [3] = assay: In vivo activity in normotensive rabbits (23.5+/-2.6 mmHg) for the intraocular pressure (IOP) lowering 90 min after topical administration with one drop of Carbonic anhydrase inhibitor at a pH 7.4; assay type: functional, Eye
Carbonic anhydrase 1 = Carbonic anhydrase 1 (Homo sapiens, UniProt P00915)
Carbonic anhydrase 4 = Carbonic anhydrase 4 (Homo sapiens, UniProt P22748)
[4] = not given; remark: listed apart in the source

Sequence of Carbonic anhydrase 1 (P00915 whole entry): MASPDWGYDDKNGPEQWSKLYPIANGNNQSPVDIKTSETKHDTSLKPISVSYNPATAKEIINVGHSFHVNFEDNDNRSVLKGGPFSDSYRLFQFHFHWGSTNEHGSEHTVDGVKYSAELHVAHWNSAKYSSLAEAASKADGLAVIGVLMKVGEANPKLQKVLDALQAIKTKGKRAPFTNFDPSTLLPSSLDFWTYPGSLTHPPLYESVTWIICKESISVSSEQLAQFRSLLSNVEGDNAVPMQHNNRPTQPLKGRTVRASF
Sequence of Carbonic anhydrase 4 (P22748 whole entry): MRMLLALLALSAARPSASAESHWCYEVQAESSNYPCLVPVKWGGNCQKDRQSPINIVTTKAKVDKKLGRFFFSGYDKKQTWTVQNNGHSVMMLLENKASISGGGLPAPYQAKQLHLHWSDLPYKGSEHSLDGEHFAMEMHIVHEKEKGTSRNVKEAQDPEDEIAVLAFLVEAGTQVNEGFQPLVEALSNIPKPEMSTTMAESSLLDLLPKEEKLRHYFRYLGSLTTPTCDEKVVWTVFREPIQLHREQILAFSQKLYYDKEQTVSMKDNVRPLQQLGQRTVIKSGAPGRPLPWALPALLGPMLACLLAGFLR

Ki (Carbonic anhydrase 1): 55 nM | Ki (Carbonic anhydrase 4): 28 nM | Kin: 8.1 h⁻¹ | Kin [4]: 4.3 h⁻¹
Structure (SMILES): NS(=O)(=O)c1nnc(NC(=O)CN(CCN(CCN(CC(=O)O)CC(=O)O)CC(=O)O)CC(=O)O)s1
Change in IOP (Oryctolagus cuniculus [1]): 3.1 mmHg | Change in IOP (Oryctolagus cuniculus [2]): 6.8 mmHg | Change in IOP (Oryctolagus cuniculus [3]): 4.5 mmHg
